Measurements reported in US20250333782A1 (ILLUMINA, INC., priority 2022, published 2025).
Where a name gives a salt, the structure may show the parent alone.

Legend:
[1] = test system: 20mer oligodeoxyribonucleotide TTTCAGCTC[5caC]GGTCACGCTC; assay: Reaction kinetics of caC reduction on 20mer, boranes with cationic moieties; details: 20 μM 20mer, 10 mM borane, NaOAc pH 4.3, 25° C.; FIG. 7
Protocol: (§1) To 45 μL of an aqueous solution of 0.111 mM 5caCpG dimer (0.1 mM final concentration) or 55.6 μM 7mer oligodeoxyribonucleotide (50 μM final concentration, sequence: AT[5caC]GCTA) or 22.2 μM 20mer oligodeoxyribonucleotide (20 μM final concentration, sequence: TTTCAGCTC[5caC]GGTCACGCTC) in 556 mM NaOAc buffer (pH 4.3, 500 mM final concentration) were added 5 μL of a stock solution of the respective borane (100 mM in DMF, 10 mM final concentration) and the reaction was incubated at 25° C. after short vortexing. Aliquots of 8 μL were taken at set time points and were quenched immediately with 4 μL alpha-ketoglutarate monosodium salt (1.0 M in H2O) and analysed by RP-UHPLC for consumption of the caC moiety in the starting material and formation of the product DHU moiety.

[2] = test system: 7mer oligodeoxyribonucleotide AT[5caC]GCTA; assay: Reaction kinetics of caC reduction on 7mer, boranes with cationic moieties; details: 50 μM 7mer, 10 mM borane, NaOAc pH 4.3, 25° C.; FIG. 7
Protocol: as §1

[3] = test system: dsDNA (300 bp-500 bp long, containing 4 known caC sites per strand); assay: caC detection of dsDNA by Illumina sequencing, one-step overnight incubation; details: one-step protocol, 100 mM borane, pH 4.3, 40° C., 16 h; expected beta=1; FIG. 4
Protocol: An aliquot of 2 M borane stock solution in DMF was added to a buffered solution containing calculated amount of dsDNA (300 bp-500 bp long, containing 4 known caC sites per strand), resulting in the final borane concentration of 100 mM and pH of 4.3 (0.5 M NaOAc). The reaction mixture (50 μL) was shaken at 40° C. for 16 h. Then, the samples were purified by 1.8×SPRI (pH adjusted with 1 M Tris buffer pH=9.0). The purified DNA was PCR-amplified using the NEB-Next Enzymatic Methyl-Seq kit's NEB-Next Q5U Master Mix along with IDT-ILMN NextEra UDI Index primers. Finally, 0.9×SPRI purification was performed. The DNA libraries were normalized to 2 nM and 20 pM sequenced on an Illumina NextSeq instrument. The sequencing data was analysed to extract the beta value, which reflects the percentage conversion of caC to T.
The boranes tested included 5-methylthiazole borane VM117, 3-aminopyridine borane (3 AP), 4-methylpyridine-borane (4MeP), 5-(methoxymethyl)-2,4-dimethyl-1,3-thiazole borane (VM293), and 4-hydroxymethylpyridine borane (4HMP). […] The percentage of caC sites were detected by Illumina sequencing.

[4] = test system: human DNA NA12878 treated with human TET2 dioxygenase; assay: caC detection by Illumina sequencing, two-step incubation; details: borane 40 mM or 100 mM, pH 4.3, 40° C. 2.5 hours, quench alpha-ketoglutarate, then 40° C. 18 hours; FIG. 5
Protocol: A sample of human DNA NA12878 was treated with human TET2 dioxygenase to oxidise mC to caC. The sample was purified by a 1.8×SPRI and resuspended in RSB buffer. 2 M stocks of the amine-boranes were prepared in DMF, then added to the DNA to a final concentration of 40 mM or 100 mM, along with pH 4.3 sodium acetate buffer to a final concentration of 0.5 M. For the one-step protocol, the samples were incubated at 40° C. for 18 hours and 750 rpm shaking. For the two-step protocol, the samples were incubated at 40° C. for 2.5 hours and 750 rpm shaking, then quenched with a 1 M solution of alpha-ketoglutarate at pH 4.3 (to a final concentration of 400 mM) and kept at 40° C. for 18 hours and 750 rpm shaking. After the incubation, all samples underwent a 1.8×SPRI purification after adding 1 M pH 9 TRIS to basify the pH. Libraries were then amplified via PCR using the NEB-Next Enzymatic Methyl-Seq kit's NEB-Next Q5U Master Mix along with NEBNext Multiplex Oligos for Illumina Index primers. A final 0.9×SPRI was performed, before libraries were normalized to 20 pM sequenced on an Illumina NovaSeq (2×151 cycles). The sequencing data was analysed to extract the beta value, which reflects the percentage conversion of 5mC or 5hmC to T.
The percentage caC sites were detected by Illumina sequencing.

Compound | reaction kinetics of consumption of caC on the 20mer [1] | reaction kinetics of consumption of caC on the 7mer [2] | beta value (percentage of caC sites detected by Illumina sequencing; conversion of caC to T) [3] | beta values with two-step protocol compared with one-step protocol [4]
C[N+](C)(C)CC(=O)NCc1ccncc1 [4AMP-Bet, 4-(Betainamidomethyl)pyridine borane (OBt/PF6 salt)] | efficient reaction kinetics of consumption of caC | efficient reaction kinetics of consumption of caC | – | –
B[n+]1c(C)sc(COC)c1C [VM293, 5-(methoxymethyl)-2,4-dimethyl-1,3-thiazole borane] | – | – | ~1 | –
[BH3-][n+]1cccc(N)c1 [3 AP, 3-aminopyridine borane] | – | – | ~1 | –
[BH3-][n+]1ccc(CO)cc1 [4HMP, 4-Hydroxymethylpyridine borane] | – | – | ~1 | –
[BH3-][n+]1ccc(C)cc1 | – | – | ~1 | consistent with the value obtained with the one-step protocol
B[n+]1csc(C)c1 [VM117, 5-methylthiazole borane] | – | – | ~1 | consistent with the value obtained with the one-step protocol
